PubChem BioAssay AID328 (DTP/NCI, 2004)
Values joined by “and” are separate entries in the source; they are usually repeats but may differ in a detail not shown here. Equal values may be shown once. Toxic doses and inconclusive results are not listed.

Test system: BDF1 mice, P388 leukemia ip, median survival T/C
Experiment: NCI In Vivo Anticancer Drug Screen. Data for tumor model P388 Leukemia (intraperitoneal) in B6D2F1 (BDF1) mice
Conditions: endpoint: median survival time, higher = longer survival
In short: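 T/C = treated-group survival ÷ vehicle-control survival; tumour transplanted into mice before dosing.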

[1] = dose: 12.5 mg/kg/injection, schedule: Q04DX003 (ip), vehicle: saline
[2] = dose: 25.0 mg/kg/injection, schedule: Q04DX003 (ip), vehicle: saline
[3] = dose: 50.0 mg/kg/injection, schedule: Q01DX009 (ip), vehicle: saline with Tween-80
[4] = dose: 50.0 mg/kg/injection, schedule: Q04DX003 (ip), vehicle: saline
[5] = dose: 100.0 mg/kg/injection, schedule: Q01DX009 (ip), vehicle: Klucel (hydroxypropylcellulose) (HPC)
[6] = dose: 100.0 mg/kg/injection, schedule: Q01DX009 (ip), vehicle: saline with Tween-80
[7] = dose: 100.0 mg/kg/injection, schedule: Q04DX003 (ip), vehicle: Klucel (hydroxypropylcellulose) (HPC)
[8] = dose: 100.0 mg/kg/injection, schedule: Q04DX003 (ip), vehicle: saline
[9] = dose: 200.0 mg/kg/injection, schedule: Q01DX009 (ip), vehicle: Klucel (hydroxypropylcellulose) (HPC)
[10] = dose: 200.0 mg/kg/injection, schedule: Q01DX009 (ip), vehicle: saline with Tween-80
[11] = dose: 200.0 mg/kg/injection, schedule: Q04DX003 (ip), vehicle: Klucel (hydroxypropylcellulose) (HPC)
[12] = dose: 400.0 mg/kg/injection, schedule: Q01DX009 (ip), vehicle: Klucel (hydroxypropylcellulose) (HPC)
[13] = dose: 400.0 mg/kg/injection, schedule: Q04DX003 (ip), vehicle: Klucel (hydroxypropylcellulose) (HPC)
[14] = dose: 100.0 mg/kg/injection, schedule: Q04DX003 (ip), vehicle: saline with Tween-80
[15] = dose: 200.0 mg/kg/injection, schedule: Q04DX003 (ip), vehicle: saline with Tween-80
[16] = dose: 400.0 mg/kg/injection, schedule: Q04DX003 (ip), vehicle: saline with Tween-80

CCOC(=O)c1cnn(-c2ccccc2)c1N
T/C (dose: 6.25 mg/kg/injection, schedule: Q04DX003 (ip), vehicle: saline): 110 % of control | T/C (dose: 12.5 mg/kg/injection, schedule: Q01DX009 (ip), vehicle: saline): 102 % of control | T/C [1]: 107 % of control | T/C (dose: 25.0 mg/kg/injection, schedule: Q01DX009 (ip), vehicle: saline): 96 % of control | T/C [2]: 100 % of control | T/C [3]: 243 % of control | T/C (dose: 50.0 mg/kg/injection, schedule: Q01DX009 (ip), vehicle: saline): 96 % of control and 104 % of control | T/C [4]: 100 % of control | T/C [5]: 104 % of control | T/C [6]: 241 % of control | T/C (dose: 100.0 mg/kg/injection, schedule: Q01DX009 (ip), vehicle: saline): 104 % of control and 105 % of control | T/C [7]: 95 % of control | T/C [8]: 95 % of control | T/C [9]: 95 % of control | T/C [10]: 91 % of control | T/C (dose: 200.0 mg/kg/injection, schedule: Q01DX009 (ip), vehicle: saline): 86 % of control | T/C [11]: 100 % of control | T/C [12]: 86 % of control | T/C [13]: 87 % of control

Cc1cc(=O)[nH]c(N/N=C/c2ccc(N(CCCl)CCCl)cc2)n1
T/C [14]: 95 % of control | T/C [15]: 86 % of control | T/C [16]: 95 % of control

CC(C)(C)c1cccc(C(C)(C)C)c1OC(=O)NS(=O)(=O)c1ccccc1
T/C [1]: 111 % of control | T/C [2]: 105 % of control | T/C [4]: 100 % of control | T/C (dose: 75.0 mg/kg/injection, schedule: Q04DX003 (ip), vehicle: Klucel (hydroxypropylcellulose) (HPC)): 104 % of control | T/C (dose: 115.0 mg/kg/injection, schedule: Q04DX003 (ip), vehicle: Klucel (hydroxypropylcellulose) (HPC)): 104 % of control

O=C(CC(O)(C(F)(F)F)C(F)(F)F)c1ccc(F)cc1
T/C (dose: 100.0 mg/kg/injection, schedule: Q04DX003 (ip), vehicle: other): 120 % of control

CCN(CC)CC(=O)Nc1ccc(Cl)cc1Cc1ccccc1
T/C [3]: 110 % of control | T/C [6]: 106 % of control | T/C [10]: 105 % of control

CCCCCCC(=O)CC(SCC)c1ccc(Cl)cc1Cl (centres undefined)
T/C [3]: 98 % of control | T/C [6]: 104 % of control | T/C [10]: 104 % of control

COc1ccc(CC2C(=O)NC(C)C(=O)N(C)C3C(=O)N(C)C(Cc4ccc(O)c(c4)Oc4ccc(cc4)C3O)C(=O)NC(C)C(=O)NC(C)C(=O)N2C)cc1 (centres undefined) (tested in a mixture with another compound)
T/C (dose: 0.5 mg/kg/injection, schedule: Q01DX009 (ip), vehicle: alcohol): 179 % of control | T/C (dose: 0.5 mg/kg/injection, schedule: Q01DX009 (ip), vehicle: carboxymethylcellulose (CMC)): 207 % of control | T/C (dose: 1.0 mg/kg/injection, schedule: Q01DX009 (ip), vehicle: alcohol): 158 % of control | T/C (dose: 1.0 mg/kg/injection, schedule: Q01DX009 (ip), vehicle: carboxymethylcellulose (CMC)): 182 % of control | T/C (dose: 2.0 mg/kg/injection, schedule: Q01DX009 (ip), vehicle: alcohol): 208 % of control | T/C (dose: 2.0 mg/kg/injection, schedule: Q01DX009 (ip), vehicle: carboxymethylcellulose (CMC)): 207 % of control

Cc1nc2ccc3nc(N)nc(N)c3c2nc1C
T/C (dose: 50.0 mg/kg/injection, schedule: Q01DX001 (ip), vehicle: saline with Tween-80): 104 % of control | T/C (dose: 100.0 mg/kg/injection, schedule: Q01DX001 (ip), vehicle: saline with Tween-80): 101 % of control | T/C (dose: 200.0 mg/kg/injection, schedule: Q01DX001 (ip), vehicle: saline with Tween-80): 111 % of control

Oc1c(O)c(Cl)c(Cl)c(Cl)c1Cl
T/C (dose: 12.5 mg/kg/injection, schedule: Q01DX009 (ip), vehicle: saline sonified): 95 % of control | T/C (dose: 12.5 mg/kg/injection, schedule: Q04DX003 (ip), vehicle: saline sonified): 100 % of control | T/C (dose: 25.0 mg/kg/injection, schedule: Q01DX009 (ip), vehicle: saline sonified): 108 % of control | T/C (dose: 25.0 mg/kg/injection, schedule: Q04DX003 (ip), vehicle: saline sonified): 100 % of control | T/C (dose: 50.0 mg/kg/injection, schedule: Q01DX009 (ip), vehicle: saline sonified): 116 % of control | T/C (dose: 50.0 mg/kg/injection, schedule: Q04DX003 (ip), vehicle: saline sonified): 100 % of control

S=c1nc(COc2ccccc2Cl)[nH][nH]1
T/C [14]: 100 % of control | T/C [15]: 109 % of control | T/C [16]: 104 % of control

Nc1nc(N)c2cc(NCc3ccc(Br)cc3)ccc2n1
T/C (dose: 3.12 mg/kg/injection, schedule: Q01DX009 (ip), vehicle: Klucel (hydroxypropylcellulose) (HPC)): 105 % of control | T/C (dose: 6.25 mg/kg/injection, schedule: Q01DX009 (ip), vehicle: Klucel (hydroxypropylcellulose) (HPC)): 100 % of control | T/C (dose: 12.5 mg/kg/injection, schedule: Q01DX009 (ip), vehicle: Klucel (hydroxypropylcellulose) (HPC)): 95 % of control

CCCCCCCCCCCCN=Cc1cc(Cc2ccc(O)c(C=NCCCCCCCCCCCC)c2)ccc1O
T/C [3]: 106 % of control | T/C [6]: 106 % of control | T/C [10]: 123 % of control

CCOC(=O)C(OCc1ccccc1)(C(=O)O)C(C)C (centres undefined)
T/C (dose: 25.0 mg/kg/injection, schedule: Q01DX009 (ip), vehicle: saline with Tween-80): 95 % of control | T/C [3]: 90 % of control | T/C [6]: 109 % of control | T/C [10]: 100 % of control | T/C (dose: 400.0 mg/kg/injection, schedule: Q01DX009 (ip), vehicle: saline with Tween-80): 104 % of control

COCCCNC1=C(C#N)C(=O)NC(c2cccs2)S1 (centres undefined)
T/C [3]: 100 % of control | T/C [6]: 117 % of control | T/C [10]: 121 % of control

O=C(Nc1ccc(Nc2ccncc2)cc1)c1ccc(Nc2ccnc3ccc([N+](=O)[O-])cc23)cc1
T/C [5]: 90 % of control | T/C [7]: 100 % of control | T/C [9]: 90 % of control | T/C [11]: 100 % of control | T/C [12]: 95 % of control | T/C [13]: 90 % of control

CC(=Nc1ccccc1)C1=C(O)C(Cc2ccc(O)cc2)NC1=O (centres undefined)
T/C [3]: 110 % of control | T/C [6]: 101 % of control

OCCNCc1ccc2ccccc2n1
T/C [8]: 100 % of control | T/C (dose: 200.0 mg/kg/injection, schedule: Q04DX003 (ip), vehicle: saline): 100 % of control

CCN(CC)CCOc1ccccc1C
T/C (dose: 20.0 mg/kg/injection, schedule: Q01DX009 (ip), vehicle: saline): 107 % of control | T/C (dose: 20.0 mg/kg/injection, schedule: Q04DX003 (ip), vehicle: saline): 100 % of control | T/C (dose: 40.0 mg/kg/injection, schedule: Q01DX009 (ip), vehicle: saline): 100 % of control | T/C (dose: 40.0 mg/kg/injection, schedule: Q04DX003 (ip), vehicle: saline): 91 % of control | T/C (dose: 80.0 mg/kg/injection, schedule: Q01DX009 (ip), vehicle: saline): 89 % of control | T/C (dose: 80.0 mg/kg/injection, schedule: Q04DX003 (ip), vehicle: saline): 91 % of control

CCCCCCCC(O)CCCCCCC
T/C (dose: 100.0 mg/kg/injection, schedule: Q01DX009 (ip), vehicle: other): 115 % of control | T/C (dose: 200.0 mg/kg/injection, schedule: Q01DX009 (ip), vehicle: other): 110 % of control | T/C (dose: 400.0 mg/kg/injection, schedule: Q01DX009 (ip), vehicle: other): 100 % of control

CCOC(=O)C(Br)C(Br)c1ccccc1 (centres undefined)
T/C (dose: 50.0 mg/kg/injection, schedule: Q01DX001 (ip), vehicle: saline): 100 % of control | T/C (dose: 50.0 mg/kg/injection, schedule: Q04DX003 (ip), vehicle: saline with Tween-80): 91 % of control | T/C (dose: 100.0 mg/kg/injection, schedule: Q01DX001 (ip), vehicle: saline): 90 % of control | T/C [14]: 108 % of control | T/C (dose: 200.0 mg/kg/injection, schedule: Q01DX001 (ip), vehicle: saline): 118 % of control | T/C [15]: 112 % of control

O=C1CN(Cc2ccccc2)CC(=O)N2C(c3ccccc3)CCCN12 (centres undefined)
T/C (dose: 50.0 mg/kg/injection, schedule: Q01DX005 (ip), vehicle: saline with Tween-80): 97 % of control | T/C (dose: 100.0 mg/kg/injection, schedule: Q01DX005 (ip), vehicle: saline with Tween-80): 87 % of control | T/C (dose: 200.0 mg/kg/injection, schedule: Q01DX005 (ip), vehicle: saline with Tween-80): 92 % of control
